In ChEMBL document CHEMBL1201862, “PubChem BioAssay data set” (2004):
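Cultured in 96-well plates, cells were exposed to test compound for 48 hours across five concentrations. Abbreviation: GI50, concentration required for 50% inhibition of growth.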 Calls of active or inactive are those of the source. Cut-off read from the data, not from the text of the source: active = GI50 up to about 1.1 µM and inactive = higher.

Experiments:
Assay in all cases: inhibition of tumour cell growth, NCI panel, 48 h
[1] = tested on: ACHN
[2] = tested on: CCRF-CEM
[3] = tested on: DU-145
[4] = tested on: HCT-15
[5] = tested on: HT-29
[6] = tested on: Hs-578T
[7] = tested on: IGROV-1
[8] = tested on: KM12
[9] = tested on: Malme-3M
[10] = tested on: NCI-H226
[11] = tested on: NCI/ADR-RES
[12] = tested on: OVCAR-4
[13] = tested on: OVCAR-8
[14] = tested on: RPMI-8226
[15] = tested on: RXF 393
[16] = tested on: SF-268
[17] = tested on: SN12C
[18] = tested on: SW-620
[19] = tested on: U-251

Row | SMILES | GI50 [1] | GI50 [2] | GI50 [3] | GI50 [4] [µM] | GI50 [5] | GI50 [6] | GI50 [7] | GI50 [8] | GI50 [9] | GI50 [10] | GI50 [11] | GI50 [12] | GI50 [13] | GI50 [14] | GI50 [15] | GI50 [16] | GI50 [17] | GI50 [18] | GI50 [19]
1 | CCN(CC)Cc1nc2sc3c(c2c(=O)n1-c1ccccc1)CCCC3 | 20 µM (inactive) | 28.4 µM (inactive) | 23 µM (inactive) | 23.8 | 12.9 µM (inactive) | 34.5 µM (inactive) | 18.7 µM (inactive) | 46.3 µM (inactive) | 23.3 µM (inactive) | 15.2 µM (inactive) | 24.8 µM (inactive) | 15.6 µM (inactive) | 17.5 µM (inactive) | 26.7 µM (inactive) | 18.5 µM (inactive) | 21.1 µM (inactive) | 19.5 µM (inactive) | 16.7 µM (inactive) | 16.9 µM (inactive)
2 | O=C1C2CC=CCC2C(=O)N1n1c(Cc2ccc(Cl)cc2)n[nH]c1=O (stereo unspecified) | > 100 µM (inactive) | > 100 µM (inactive) | > 100 µM (inactive) | > 100 | > 100 µM (inactive) | > 100 µM (inactive) | > 100 µM (inactive) | > 100 µM (inactive) | > 100 µM (inactive) | > 100 µM (inactive) | > 100 µM (inactive) | > 100 µM (inactive) | > 100 µM (inactive) | > 100 µM (inactive) | > 100 µM (inactive) | > 100 µM (inactive) | > 100 µM (inactive) | > 100 µM (inactive) | > 100 µM (inactive)
3 | OC[C@H]1CC(c2nn[nH]n2)[C@H](O)[C@@H]1O (stereo partly specified) | > 100 µM (inactive) | > 100 µM (inactive) | > 100 µM (inactive) | > 100 | > 100 µM (inactive) | > 100 µM (inactive) | > 100 µM (inactive) | > 100 µM (inactive) | > 100 µM (inactive) | > 100 µM (inactive) | > 100 µM (inactive) | > 100 µM (inactive) | > 100 µM (inactive) | > 100 µM (inactive) | 8.13 µM (inactive) | > 100 µM (inactive) | > 100 µM (inactive) | > 100 µM (inactive) | > 100 µM (inactive)
4 | CCC1(O)CC(OC2CC(N(C)C)C(OC3CC(O)C(OC4CCC(=O)C(C)O4)C(C)O3)C(C)O2)c2c(cc3c(c2O)C(=O)c2c(O)ccc(O)c2C3=O)C1C(=O)OC (stereo unspecified) | < 0.01 µM (active) | < 0.01 µM (active) | < 0.01 µM (active) | < 0.01 | < 0.01 µM (active) | < 0.0407 µM (active) | < 0.01 µM (active) | < 0.01 µM (active) | < 0.01 µM (active) | < 0.01 µM (active) | < 0.01 µM (active) | < 0.01 µM (active) | < 0.01 µM (active) | < 0.01 µM (active) | < 0.01 µM (active) | < 0.01 µM (active) | < 0.01 µM (active) | < 0.01 µM (active) | < 0.01 µM (active)
5 | Cc1ncc(CO)c(/C=N/CCCCCC/N=C/c2c(CO)cnc(C)c2[O-])c1[O-].[Mg+2] | > 100 µM (inactive) | 36.2 µM (inactive) | > 100 µM (inactive) | > 100 | > 100 µM (inactive) | > 100 µM (inactive) | > 100 µM (inactive) | > 100 µM (inactive) | > 100 µM (inactive) | > 100 µM (inactive) | > 100 µM (inactive) | > 100 µM (inactive) | > 67.9 µM (inactive) | > 100 µM (inactive) | > 100 µM (inactive) | > 100 µM (inactive) | > 100 µM (inactive) | > 100 µM (inactive) | > 100 µM (inactive)
6 | CC(C)C[C@H](NC(=O)[C@H](Cc1ccc(F)cc1)NC(=O)c1ccccn1)B(O)O | < 0.01 µM (active) | < 0.01 µM (active) | < 0.01 µM (active) | < 0.01 | < 0.01 µM (active) | < 0.01 µM (active) | < 0.01 µM (active) | < 0.01 µM (active) | < 0.01 µM (active) | < 0.01 µM (active) | < 0.01 µM (active) | < 0.01 µM (active) | < 0.01 µM (active) | < 0.01 µM (active) | < 0.01 µM (active) | < 0.01 µM (active) | < 0.01 µM (active) | < 0.01 µM (active) | < 0.01 µM (active)
7 | Oc1c(/N=N\c2ccccc2)c2cccc3ccc4cccc1c4c32 | 26.8 µM (inactive) | > 100 µM (inactive) | > 100 µM (inactive) | > 100 | > 100 µM (inactive) | 33.7 µM (inactive) | > 100 µM (inactive) | > 100 µM (inactive) | > 100 µM (inactive) | > 100 µM (inactive) | > 100 µM (inactive) | 43.2 µM (inactive) | 40.2 µM (inactive) | > 100 µM (inactive) | > 100 µM (inactive) | 45.9 µM (inactive) | > 100 µM (inactive) | > 100 µM (inactive) | 42.7 µM (inactive)
8 | N#Cc1c(-c2ccc([N+](=O)[O-])cc2)c2c([nH]c1=O)-c1ccccc1CCC2 | 37.5 µM (inactive) |  | 28.1 µM (inactive) | 31.3 | 55.3 µM (inactive) | 75 µM (inactive) | 46.8 µM (inactive) | 40.7 µM (inactive) | 56.6 µM (inactive) | 44 µM (inactive) | 50.5 µM (inactive) | 65.6 µM (inactive) | 55.3 µM (inactive) | 30.8 µM (inactive) | 30.9 µM (inactive) | 68.7 µM (inactive) | > 100 µM (inactive) | 63.5 µM (inactive) | 52.5 µM (inactive)
9 | Cc1ccc(-c2n[nH]c(=O)n2NC(=O)c2ccccc2C(=O)O)cc1 | > 100 µM (inactive) |  | > 100 µM (inactive) | > 100 | > 100 µM (inactive) | > 100 µM (inactive) | > 100 µM (inactive) | > 100 µM (inactive) | > 100 µM (inactive) | > 100 µM (inactive) | > 100 µM (inactive) |  | > 100 µM (inactive) | > 100 µM (inactive) | > 100 µM (inactive) | > 100 µM (inactive) | > 100 µM (inactive) | > 100 µM (inactive) | > 100 µM (inactive)
10 | O=C1NC(=O)c2ccccc2/C1=C/c1ccc2c(c1)OCO2 | 15.8 µM (inactive) | 5.92 µM (inactive) | 40.3 µM (inactive) | 15.6 | 20.8 µM (inactive) | 10.4 µM (inactive) | 23.7 µM (inactive) | 17 µM (inactive) | 31.3 µM (inactive) | 27.9 µM (inactive) | 17.9 µM (inactive) | 49.1 µM (inactive) | 28 µM (inactive) | 19.3 µM (inactive) | 3.29 µM (inactive) | 21.8 µM (inactive) | 19.9 µM (inactive) | 30.5 µM (inactive) | 
11 | COC(=O)[C@](NC(=O)OCc1ccccc1)([C@@H](C)[S+]([O-])c1ccc(C)cc1)C(F)(F)F (stereo partly specified) | 39.6 µM (inactive) | 22.8 µM (inactive) | 38.2 µM (inactive) | 34.7 | 24.8 µM (inactive) | 58.9 µM (inactive) | 24.6 µM (inactive) | 29.3 µM (inactive) | 33 µM (inactive) | 35.2 µM (inactive) | 28.7 µM (inactive) | 20.8 µM (inactive) | 35.2 µM (inactive) | 26.5 µM (inactive) | 20 µM (inactive) | 41.1 µM (inactive) |  | 53.2 µM (inactive) | 36.8 µM (inactive)
12 | C=CCSC1=N/C(=C\c2ccc(OC)cc2)C(=O)N1CC=C | 33.3 µM (inactive) | 16.6 µM (inactive) | 42.2 µM (inactive) | 20.8 | 20.2 µM (inactive) | 64.7 µM (inactive) | > 100 µM (inactive) | 21.9 µM (inactive) | 27.7 µM (inactive) |  | 27.6 µM (inactive) | 28.2 µM (inactive) | 36.2 µM (inactive) | 15.5 µM (inactive) | 14.6 µM (inactive) | 60.4 µM (inactive) | 24.1 µM (inactive) | 35.2 µM (inactive) | 24.3 µM (inactive)
13 | CCC(=O)Nc1ccc(N2C(=O)C(Cl)C2c2ccc(SC)cc2)cc1 (stereo unspecified) | > 100 µM (inactive) | 26.9 µM (inactive) | > 100 µM (inactive) | 98.2 | > 100 µM (inactive) | > 100 µM (inactive) | 94.2 µM (inactive) | > 100 µM (inactive) | > 100 µM (inactive) | 31.5 µM (inactive) | > 100 µM (inactive) | 33.5 µM (inactive) | > 100 µM (inactive) | 32.5 µM (inactive) | 34.8 µM (inactive) | 60.3 µM (inactive) | 50.2 µM (inactive) | > 100 µM (inactive) | 
14 | O=C1Nc2ccccc2S/C1=C\c1ccc(C(F)(F)F)cc1 | > 100 µM (inactive) |  | > 100 µM (inactive) | > 100 | > 100 µM (inactive) | > 100 µM (inactive) | > 100 µM (inactive) | > 100 µM (inactive) | > 100 µM (inactive) | > 100 µM (inactive) | > 100 µM (inactive) | > 100 µM (inactive) | > 100 µM (inactive) | > 100 µM (inactive) | > 100 µM (inactive) | > 100 µM (inactive) | > 100 µM (inactive) | > 100 µM (inactive) | > 100 µM (inactive)
15 | [O-][n+]1cn[n+]([O-])c2ccccc21 | 12.2 µM (inactive) | 3.46 µM (inactive) | 63.1 µM (inactive) | 16.4 | 13.6 µM (inactive) | 57.1 µM (inactive) | 11.2 µM (inactive) | 19.5 µM (inactive) | 18.6 µM (inactive) | > 100 µM (inactive) | 23.5 µM (inactive) |  | 18.9 µM (inactive) | 28.6 µM (inactive) | 20.7 µM (inactive) | 33.2 µM (inactive) | 38.3 µM (inactive) | 6.82 µM (inactive) | 32.4 µM (inactive)
